Measurements: article PMC4741889, “Ligand-based chemoinformatic discovery of a novel small molecule inhibitor targeting CDC25 dual specificity phosphatases and displaying in vitro efficacy against melanoma cells” (Oncotarget, 2015)
Where two headings read alike, the source gives them in different places.

Assays:
[1] = target: T1, CDC25C (Homo sapiens, UniProt P30307); assay: Ki from OMFP hydrolysis kinetics (Lineweaver-Burk), CDC25C; format: biochemical
T1 construct: Recombinant forms of the catalytic domains of CDC25A, -B and -C were obtained through the vectors pET28a-CDC25A-cd, pET28a-CDC25B-cd and pET28a-CDC25C-cd; made in house
T1 sequence (P30307 321-428 limits assumed): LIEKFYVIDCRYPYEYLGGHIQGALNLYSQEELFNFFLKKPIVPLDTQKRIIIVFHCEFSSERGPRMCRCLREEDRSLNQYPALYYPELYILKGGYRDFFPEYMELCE
Protocol: (§1) To measure the inhibition constant (Ki) of the recombinant forms of CDC25A, -B and -C towards the various inhibitors, the affinity of the different forms of CDC25 towards OMFP was measured either in the absence or in the presence of fixed concentrations of the various inhibitors. The reaction mixture contained 20 nM CDC25A, or 10 nM CDC25B, or 40 nM CDC25C, and different concentrations of the various inhibitors in 500 μL final volume of 20 mM Tris-HCl, pH 7.8, 1 mM DTT. DMSO was used as vehicle control. […] The corresponding Lineweaver-Burk plots allowed the calculation of the KM for OMFP and of the Vmax of OMFP hydrolysis, expressed as a.u./minmax. […] The Ki values were obtained from the decrease of a.u./minmax in the presence of the inhibitor, according to the equation a.u./mimmax’ = a.u./mimmax/{1 + ([I]/Ki)}, where a.u./mimmax’ represents the Vmax measured in the presence of the concentration [I] of the inhibitor. The Ki values were obtained from at least three independent experiments and reported as mean ± S.E.

[2] = test system: SAN cells; assay: MTT cell growth rate, SAN melanoma cells; format: cell-based, human; settings: 100 μM
Protocol: (§2) The human melanoma cell line A2058, kindly provided by CEINGE (Naples, Italy), and SAN cells were derived from lymph nodal metastases and grown in DMEM and RPMI 1640, respectively, supplemented with 10% FBS, 2 mM L-glutamine, 100 IU/mL penicillin G, and 100 μg/mL streptomycin in humidified incubator at 37°C under 5% CO2 atmosphere. All cells were split and seeded every three days and used during the exponential phase of growth. Cell treatments were always carried after 24 h from plating.
(§3) The MTT assay was used to detect cell proliferation essentially as previously described. Briefly, A2058 and SAN cells were plated in 96-well microtiter plates (100 μL/well) at 4000 and 6000 cells/well, respectively. After 24-h seeding, cells were treated with the selected compounds added at 25, 50 or 100 μM concentration, or with 0.5% (v/v) DMSO as a vehicle control. After 24-h, 48-h or 72-h treatment, and upon the addition of 10 μL of MTT solution in the dark, the plate was incubated for 3 h at 37°C under CO2 atmosphere. After medium aspiration and solubilization of formazan crystals, absorbance was measured at 570 nm, using an ELISA plate reader (Bio-Rad, Milano, Italy).

[3] = test system: A2058 cells; assay: MTT cell growth rate, A2058 melanoma cells; format: cell-based, human; settings: A2058, 100 μM, 48 h, MTT
Protocol: as §2, §3

[4] = test system: PC-3 prostate cancer cell line; parameters: method as in PMID 22524450; settings: cited from earlier work
[5] = target: T2, CDC25B (Homo sapiens, UniProt P30305); assay: Residual phosphatase activity of recombinant CDC25B, fluorimetric OMFP assay; format: biochemical; settings: for remaining activity at 0.2 µM: 0.2 μM inhibitor; for remaining activity at 0.2 µM / remaining activity at 1 µM: 10 nM CDC25B, 25 μM OMFP, read-out: CDC25B residual activity (%) in the presence of [inhibitor]; for remaining activity at 1 µM: 1 μM inhibitor
T2 construct: Recombinant forms of the catalytic domains of CDC25A, -B and -C were obtained through the vectors pET28a-CDC25A-cd, pET28a-CDC25B-cd and pET28a-CDC25C-cd; made in house
T2 sequence (P30305 431-538 limits assumed): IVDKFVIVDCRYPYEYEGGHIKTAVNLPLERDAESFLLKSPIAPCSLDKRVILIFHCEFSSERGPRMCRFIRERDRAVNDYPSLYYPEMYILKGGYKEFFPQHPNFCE
Protocol: Among the twenty-five structures identified from the multiple ligand-based chemoinformatic approach, eight compounds (2, 10, 12–14, and 16–18) were excluded from the analysis, because endowed with a strong fluorescent signal, which interfered with the emission wavelength of the synthetic substrate 3-O-methylfluorescein phosphate (OMFP) used in the fluorimetric assay. The inhibition of the phosphatase activity of CDC25B by the remaining seventeen analogs was evaluated in the presence of two different concentrations of these compounds (Table 2). […] For this reason, only one of these latter compounds, i.e. 3, was included in the following analysis.
The enzymatic activity of the catalytic domains of CDC25A, -B and -C were determined through a fluorimetric method, which monitored the dephosphorylation of the synthetic substrate OMFP, essentially as previously described. In steady-state enzyme kinetic studies, the residual phosphatase activity of purified recombinant CDC25B was measured at 30°C in the presence of different concentrations of the various inhibitors, using a computer-assisted Cary Eclipse spectrofluorimeter (Varian) equipped with an electronic temperature controller. Excitation and emission wavelengths were set at 485 and 530 nm, respectively; both excitation and emission slits were set at 10 nm. The reaction mixture contained 10 nM CDC25B and different concentrations of the various inhibitors in 500 μL final volume of 20 mM Tris-HCl, pH 7.8, 1 mM DTT. DMSO was used as vehicle control. The reaction started by the addition of 25 μM OMFP, and the formation of the fluorescent product o-methylfluorescein was monitored continuously. The rate of OMFP hydrolysis was expressed as arbitrary units per min (a.u./min). The comparison of the rates determined in the absence and in the presence of the various inhibitors allowed the calculation of the residual phosphatase activity, expressed as a percentage.

[6] = test system: K562 leukaemia cancer cell line; parameters: method as in PMID 22524450; settings: cited from earlier work
[7] = test system: MCF-7 breast cancer cell line; parameters: method as in PMID 22524450; settings: cited from earlier work
[8] = test system: SAN cells; assay: Intracellular ROS level (DCFH-DA), SAN cells; format: cell-based, human; settings: SAN cells not treated with 7, 0.5 mM apocynin
Protocol: The high redox reactivity of quinonoid molecules, like compound 7, could greatly perturb the intracellular redox state. […] The oxidant effect of 7 was also evaluated after cell pre-treatment with two antioxidant molecules, such as N-acetyl-cysteine (NAC) and the specific inhibitor of NADPH oxidase, apocynin. To this aim, A2058 and SAN cells were pre-incubated for 1 h with 10 mM NAC or 45 min with 0.5 mM apocynin and then treated for 4 h with 100 μM compound 7. […] The cytotoxic activity of 7 could be mediated by the observed increase of ROS level.
The intracellular ROS level was monitored using the oxidation-sensitive fluorescence probe DCFH-DA. Cells were seeded into 6-well-plates (3 × 10^5 cells/plate) for 24 h at 37°C and then treated at various times with 100 μM compound 7 or 0.5% DMSO. DCFH-DA was added in the dark at 10 μM final concentration 30-min before the end of each incubation; then, cells were collected, washed in PBS, and finally resuspended in 500 μL PBS for fluorimetric analysis. Measurements were realized in a Cary Eclipse fluorescence spectrophotometer (Varian); excitation and emission wavelengths were set at 485 nm and 530 nm, respectively; both excitation and emission slits were set at 10 nm. The effect of 7 on ROS production was also estimated after pretreatment of cells with 10 mM NAC for 1 h.
Supplementary Figure S5: ROS production and their involvement in the apoptotic process of SAN cells, as induced by treatment with compound 7. A. Time-dependent measurement of ROS production. Cells were incubated with 0.5% DMSO (open bars) or 100 μM compound 7 (black bars) and then the intracellular ROS level was measured. B. Effect of antioxidant molecules on ROS production. The ROS level was also measured in cells untreated or pretreated with NAC or apocynin after a 4-h incubation with DMSO or 7. C. Effect of NAC on apoptosis. The PI incorporation was evaluated in cells untreated or pretreated with NAC after a 48-h incubation with DMSO or 7. ROS production was expressed as a.u., and apoptosis as a percentage. […]

[9] = target: T3, CDC25A (Homo sapiens, UniProt P30304); assay: Ki from OMFP hydrolysis kinetics (Lineweaver-Burk), CDC25A; format: biochemical
T3 construct: Recombinant forms of the catalytic domains of CDC25A, -B and -C were obtained through the vectors pET28a-CDC25A-cd, pET28a-CDC25B-cd and pET28a-CDC25C-cd; made in house
T3 sequence (P30304 376-482 limits assumed): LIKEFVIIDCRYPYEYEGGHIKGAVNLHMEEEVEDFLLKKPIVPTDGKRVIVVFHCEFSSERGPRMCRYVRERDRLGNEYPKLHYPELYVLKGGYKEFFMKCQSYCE
Protocol: as §1

[10] = target: T2, CDC25B; assay: Ki from OMFP hydrolysis kinetics (Lineweaver-Burk), CDC25B; format: biochemical; settings: 10 nM CDC25B, 1–25 μM OMFP; mean ± S.E.
Protocol: To measure the inhibition constant (Ki) of the recombinant forms of CDC25A, -B and -C towards the various inhibitors, the affinity of the different forms of CDC25 towards OMFP was measured either in the absence or in the presence of fixed concentrations of the various inhibitors. The reaction mixture contained 20 nM CDC25A, or 10 nM CDC25B, or 40 nM CDC25C, and different concentrations of the various inhibitors in 500 μL final volume of 20 mM Tris-HCl, pH 7.8, 1 mM DTT. DMSO was used as vehicle control. The reaction started by the addition of 1–25 μM OMFP, and the rate of OMFP hydrolysis was measured as indicated before. The corresponding Lineweaver-Burk plots allowed the calculation of the KM for OMFP and of the Vmax of OMFP hydrolysis, expressed as a.u./minmax. […] The Ki values were obtained from the decrease of a.u./minmax in the presence of the inhibitor, according to the equation a.u./mimmax’ = a.u./mimmax/{1 + ([I]/Ki)}, where a.u./mimmax’ represents the Vmax measured in the presence of the concentration [I] of the inhibitor. The Ki values were obtained from at least three independent experiments and reported as mean ± S.E.

[11] = 40 nM CDC25C, 1–25 μM OMFP, mean ± S.E., read-out: Ki CDC25C
[12] = 20 nM CDC25A, 1–25 μM OMFP, mean ± S.E., read-out: Ki CDC25A

O=C(O)CCc1c2ccc(=O)c(O)c-2oc2c(O)c(O)ccc12 [NSC 119915, reference compound]
Ki [1, 11]: 0.24 ± 0.13 µM
cell growth rate ([2]; 72 h, MTT (not shown)): significant reduction of cell growth rate
cell growth rate [3]: quite ineffective or caused a not significant reduction of cell growth rate
growth of cancer cell line [4]: significantly inhibited the growth
remaining activity at 0.2 µM [5]: 38%
remaining activity at 1 µM [5]: 2%
growth of cancer cell line [6]: significantly inhibited the growth
growth of cancer cell line [7]: significantly inhibited the growth

COc1cc(C(C)=O)ccc1O [apocynin, reference compound]
basal intracellular redox state [8]: raised the basal intracellular redox state

O=C(O)c1c2ccc(=O)cc-2oc2cc(O)ccc12 [Compound 3]
Ki [1, 11]: 4.4 ± 0.62 µM
cell growth rate ([2]; 48 h, MTT): failure
cell growth rate [3]: failure
Ki [9, 12]: 0.28 ± 0.09 µM
remaining activity at 0.2 µM [5]: 85%
remaining activity at 1 µM [5]: 62%
inhibition of the CDC25B phosphatase activity (in words) ([5]; two inhibitor concentrations, 0.2 and 1 μM): measurable inhibition of the phosphatase activity, only when added at the highest concentration
Ki [10]: 2.4 ± 0.39 µM

O=c1cc2oc3cc(O)c(O)cc3c(-c3ccccc3)c-2cc1O [Compound 9]
Ki [1, 11]: 1.5 ± 0.48 µM
cell growth rate ([2]; 48 h, MTT): failure
cell growth rate [3]: failure
Ki [9, 12]: 0.8 ± 0.31 µM
remaining activity at 0.2 µM [5]: 9%
remaining activity at 1 µM [5]: 0%
Ki [10]: 0.44 ± 0.2 µM

O=C(O)C1C(c2c3ccc(=O)c(O)c-3oc3c(O)c(O)ccc23)C2(Cl)C(Cl)=C(Cl)C1(Cl)C2(Cl)Cl (centres unmarked) [Compound 25]
Ki [1, 11]: 0.96 ± 0.38 µM
cell growth rate ([2]; 48 h, MTT): failure
cell growth rate [3]: failure
Ki [9, 12]: 0.4 ± 0.15 µM
remaining activity at 0.2 µM [5]: 24%
remaining activity at 1 µM [5]: 1%
Ki [10]: 1.1 ± 0.4 µM

O=C(O)C1[C@H]2C=C[C@H](C2)[C@H]1c1c2ccc(=O)c(O)c-2oc2c(O)c(O)ccc12 (stereo partly drawn) [Compound 24, (1R,3R,4S)-3-(4,5,6-trihydroxy-3-oxo-3H-xanthen-9-yl)bicyclo[2.2.1]hept-5-ene-2-carboxylic acid]
Ki [1]: 0.4 ± 0.11 µM
cell growth rate ([2]; 48 h, MTT): significant reduction of cell growth rate
Ki [9]: 0.01 ± 0.005 µM
remaining activity at 0.2 µM [5]: 22%
remaining activity at 1 µM [5]: 3%
Ki [10]: 0.3 ± 0.08 µM

O=C(O)/C=C/c1c2ccc(=O)c(O)c-2oc2c(O)c(O)ccc12 [Compound 6, (E)-3-(4,5,6-trihydroxy-3-oxo-3H-xanthen-9-yl)acrylic acid]
Ki [1, 11]: 1 ± 0.41 µM
cell growth rate ([2]; 48 h, MTT): significant reduction of cell growth rate
Ki [9, 12]: 0.1 ± 0.03 µM
remaining activity at 0.2 µM [5]: 14%
remaining activity at 1 µM [5]: 2%
Ki [10]: 1.1 ± 0.37 µM

O=C(O)C=Cc1c2ccc(=O)cc-2oc2cc(O)ccc12 [Compound 5]
Ki [1, 11]: 0.39 ± 0.15 µM
cell growth rate ([2]; 48 h, MTT): failure
cell growth rate [3]: failure
Ki [9, 12]: 0.38 ± 0.12 µM
remaining activity at 0.2 µM [5]: 12%
remaining activity at 1 µM [5]: 2%
Ki [10]: 0.12 ± 0.05 µM
